# Target: PIKfyve (Homo sapiens (Human), UniProt Q9Y2I7)
# Experiment: PIKfyve EEA1 Assay (endosomal vesicle enlargement, high content imaging in U2OS cells)
# Format: cell-based
# Conditions: 3 hours of treatment, activity relative to maximal APY0201 activity
# Experimental: PIKfyve EEA1 Assay. Genetic or pharmacological disruption of PIKfyve activity results in enlargement of endosomal vesicles. This enlargement was utilized as a surrogate readout of PIKFyve inhibition for routine triage of PIKfyve inhibitors. U2OS cells grown in 96-well assay plates were treated with compound diluted in DMEM media containing 10% fetal bovine serum. After 3 hours of treatment, cells were fixed with paraformaldehyde, permeabilized with 0.2% Triton-X in phosphate buffered saline and stained against EEA1. During the secondary antibody staining, cells were also stained with CellMask™ Deep Red and Hoechst to detect cytoplasms and nuclei respectively. Endosomal structures were visualized using a high content imager at 40× magnification. Images were analyzed using a linear classifier algorithm integrating EEA1 spot size, intensity and texture trained on images of cells treated with the potent reference compound APY0201. Compound activity was calculated by subtracting the DMSO signal and calculating percentage activity relative to maximal APY0201 activity. IC50 values were then calculated from concentration versus percent inhibition data by logistic regression.
# Chain of PIKfyve (Q9Y2I7 whole entry): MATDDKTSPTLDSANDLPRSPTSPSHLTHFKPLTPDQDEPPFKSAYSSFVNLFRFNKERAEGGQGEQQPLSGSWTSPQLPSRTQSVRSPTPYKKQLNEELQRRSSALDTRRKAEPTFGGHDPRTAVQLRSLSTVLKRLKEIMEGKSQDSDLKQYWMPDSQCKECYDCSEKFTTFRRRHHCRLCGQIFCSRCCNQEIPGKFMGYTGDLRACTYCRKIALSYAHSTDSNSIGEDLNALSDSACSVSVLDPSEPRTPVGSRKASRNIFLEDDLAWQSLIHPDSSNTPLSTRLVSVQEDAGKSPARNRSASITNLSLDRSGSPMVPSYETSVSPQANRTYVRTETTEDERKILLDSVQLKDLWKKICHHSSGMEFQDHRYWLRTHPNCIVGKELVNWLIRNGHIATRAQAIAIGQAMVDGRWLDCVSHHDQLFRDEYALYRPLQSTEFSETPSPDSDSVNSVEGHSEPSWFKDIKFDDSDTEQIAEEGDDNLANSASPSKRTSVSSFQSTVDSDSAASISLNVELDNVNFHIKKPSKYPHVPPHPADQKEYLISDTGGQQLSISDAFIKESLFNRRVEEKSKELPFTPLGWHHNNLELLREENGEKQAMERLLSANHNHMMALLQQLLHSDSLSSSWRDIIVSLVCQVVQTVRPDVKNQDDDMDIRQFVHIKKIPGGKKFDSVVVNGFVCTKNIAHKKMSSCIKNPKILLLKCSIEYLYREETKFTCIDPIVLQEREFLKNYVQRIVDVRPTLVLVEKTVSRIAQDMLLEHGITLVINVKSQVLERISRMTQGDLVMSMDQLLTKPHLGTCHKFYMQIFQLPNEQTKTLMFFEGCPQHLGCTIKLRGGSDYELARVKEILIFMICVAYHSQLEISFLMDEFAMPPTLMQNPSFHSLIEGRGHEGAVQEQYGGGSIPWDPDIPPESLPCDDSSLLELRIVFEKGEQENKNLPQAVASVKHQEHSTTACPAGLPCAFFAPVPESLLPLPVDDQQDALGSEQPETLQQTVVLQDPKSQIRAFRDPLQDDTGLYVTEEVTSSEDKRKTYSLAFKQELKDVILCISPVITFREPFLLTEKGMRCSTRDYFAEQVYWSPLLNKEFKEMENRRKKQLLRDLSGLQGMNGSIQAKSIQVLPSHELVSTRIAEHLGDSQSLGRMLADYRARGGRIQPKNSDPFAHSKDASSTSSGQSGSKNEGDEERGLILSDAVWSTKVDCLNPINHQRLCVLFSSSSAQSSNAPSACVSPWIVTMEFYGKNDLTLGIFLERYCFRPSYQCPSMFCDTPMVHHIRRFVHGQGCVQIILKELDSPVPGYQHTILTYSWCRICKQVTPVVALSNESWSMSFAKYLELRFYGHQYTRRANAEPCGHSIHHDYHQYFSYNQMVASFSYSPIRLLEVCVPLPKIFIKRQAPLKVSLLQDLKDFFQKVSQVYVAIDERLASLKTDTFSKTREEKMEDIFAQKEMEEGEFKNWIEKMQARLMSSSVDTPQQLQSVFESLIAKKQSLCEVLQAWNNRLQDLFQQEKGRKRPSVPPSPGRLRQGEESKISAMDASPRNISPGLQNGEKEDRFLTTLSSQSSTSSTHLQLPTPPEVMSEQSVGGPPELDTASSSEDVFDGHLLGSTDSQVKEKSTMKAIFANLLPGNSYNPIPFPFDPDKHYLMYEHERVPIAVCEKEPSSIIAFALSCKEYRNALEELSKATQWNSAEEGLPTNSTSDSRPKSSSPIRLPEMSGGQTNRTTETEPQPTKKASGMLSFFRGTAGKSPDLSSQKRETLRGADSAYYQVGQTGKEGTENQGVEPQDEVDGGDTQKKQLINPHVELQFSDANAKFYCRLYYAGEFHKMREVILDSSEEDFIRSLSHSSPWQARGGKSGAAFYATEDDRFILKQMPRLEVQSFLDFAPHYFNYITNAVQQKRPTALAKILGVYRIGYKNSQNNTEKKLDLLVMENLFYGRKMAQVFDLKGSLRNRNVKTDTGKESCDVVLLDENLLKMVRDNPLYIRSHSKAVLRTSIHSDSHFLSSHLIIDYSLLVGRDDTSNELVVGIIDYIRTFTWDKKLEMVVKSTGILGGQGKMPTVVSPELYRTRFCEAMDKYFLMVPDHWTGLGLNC
row,SMILES,IC50
1,COc1c(OCCc2ccccn2)nc(-c2cccc(-c3ccn(C)n3)c2)nc1N1CCOCC1 [Compound 4],1 to 10 µM
2,"COc1c(-c2cccc(-c3ccn(C)n3)c2)nc(OCCc2ccccn2)nc1N1CCOCC1 [Compound 5, 4-(5-methoxy-6-(3-(1-methyl-H-pyrazol-3-yl)phenyl)-2-(2-(pyridin-2-yl)ethoxy)pyrimidin-4-yl)morpholine]",1 to 10 µM
3,COc1c(Nc2ccncc2)nc(N2CCOCC2)nc1-c1cccc(-n2ccc(C)n2)c1 [Compound 9],0.01 to 0.1 µM
4,"COc1cc(-c2nc(N3CCOCC3)nc(Nc3cccnc3)c2OC)cnc1OC [Compound 18, 6-(5,6-dimethoxypyridin-3-yl)-5-methoxy-2-morpholino-N-(pyridin-3-yl)pyrimidin-4-amine]",1 to 10 µM
5,COc1ccc(-c2nc(N3CCOCC3)nc(Nc3cccnc3)c2OC)cc1OC [Compound 22],1 to 10 µM
6,"COc1c(Nc2cccnc2)nc(N2CCOCC2)nc1-c1cccc(C#N)c1 [Compound 23, 3-(5-methoxy-2-morpholino-6-(pyridin-3-ylamino)pyrimidin-4-yl)benzonitrile]",1 to 10 µM
7,COc1c(Nc2cccnc2)nc(N2CCOCC2)nc1-c1cccc(C(=O)N(C)C)c1 [Compound 24],1 to 10 µM
8,"COc1c(Nc2cccnc2)nc(N2CCOCC2)nc1-c1cccc(N2CCC(O)C2)c1 (stereo not drawn) [Compound 26, 1-(3-(5-methoxy-2-morpholino-6-(pyridin-3-ylamino)pyrimidin-4-yl)phenyl)pyrrolidin-3-ol]",1 to 10 µM
9,"COc1c(Nc2cccnc2)nc(N2CCOCC2)nc1-c1cccc(N2CCN(C)C(=O)C2)c1 [Compound 27, 4-(3-(5-methoxy-2-morpholino-6-(pyridin-3-ylamino)pyrimidin-4-yl)phenyl)-1-methylpiperazin-2-one]",1 to 10 µM
10,"COc1c(Nc2cccnc2)nc(N2CCOCC2)nc1-c1cccc(N2CCOCC2=O)c1 [Compound 28, 4-(3-(5-methoxy-2-morpholino-6-(pyridin-3-ylamino)pyrimidin-4-yl)phenyl)morpholin-3-one]",1 to 10 µM
11,"COc1c(Nc2cccnc2)nc(N2CCOCC2)nc1-c1cccc(N2CCCC2=O)c1 [Compound 29, 1-(3-(5-methoxy-2-morpholino-6-(pyridin-3-ylamino)pyrimidin-4-yl)phenyl)pyrrolidin-2-one]",1 to 10 µM
12,"CN1CCCC(Oc2nc(N3CCOCC3)nc3c2OCc2cc(-c4ccccc4)nn2-3)C1 (stereo not drawn) [Compound 35, 4-((1-methylpiperidin-3-yl)oxy)-2-morpholino-8-phenyl-6H-pyrazolo[1,5-d]pyrimido[5,4-b][1,4]oxazine]",1 to 10 µM
13,COc1c(N2CCOCC2)nc(-c2cccc(-n3cccn3)c2)nc1N1CCN(C)C(=O)C1 [Compound 36],1 to 10 µM
14,"COc1c(-c2cccc(-n3cccn3)c2)nc(N2CCN(C)C(=O)C2)nc1N1CCOCC1 [Compound 37, 4-[5-methoxy-4-morpholino-6-(3-pyrazol-1-ylphenyl)pyrimidin-2-yl]-1-methyl-piperazin-2-one]",1 to 10 µM
15,"COc1c(Nc2ccncc2)nc(N2CCOCC2)nc1-c1cccc(N2CCC(O)CC2)c1 [Compound 48, 1-(3-(5-methoxy-2-morpholino-6-(pyridin-4-ylamino)pyrimidin-4-yl)phenyl)piperidin-4-ol]",0.1 to 1 µM
16,"Clc1c(Nc2ccncc2)nc(N2CCOCC2)nc1-c1cccc(-n2cccn2)c1 [Compound 50, 6-(3-(1H-pyrazol-1-yl)phenyl)-5-chloro-2-morpholino-N-(pyridin-4-yl)pyrimidin-4-amine]",0.1 to 1 µM
17,"COc1ccc(-c2nc(N3CCOCC3)nc(Nc3ccncc3)c2OC)nc1OC [Compound 51, 6-(5,6-dimethoxypyridin-2-yl)-5-methoxy-2-morpholino-N-(pyridin-4-yl)pyrimidin-4-amine]",0.1 to 1 µM
18,"COc1c(-c2cccc(-c3ccn(C)n3)c2)nc(N2CCOCC2)nc1-c1cnn(C)c1 [Compound 52, 4-(5-methoxy-4-(3-(1-methyl-1H-pyrazol-3-yl)phenyl)-6-(1-methyl-1H-pyrazol-4-yl)pyrimidin-2-yl)morpholine]",1 to 10 µM
19,"COc1c(Nc2ccncc2)nc(N2CCOCC2)nc1-c1cccc(-c2ncco2)c1 [Compound 54, 5-methoxy-2-morpholino-6-(3-(oxazol-2-yl)phenyl)-N-(pyridin-4-yl)pyrimidin-4-amine]",0.01 to 0.1 µM
20,"COc1c(Nc2cccnc2)nc(N2CCOCC2)nc1-c1cccc(N2CCC(O)CC2)c1 [Compound 55, 1-(3-(5-methoxy-2-morpholino-6-(pyridin-3-ylamino)pyrimidin-4-yl)phenyl)piperidin-4-ol]",1 to 10 µM
21,"COc1c(Nc2ccncc2)nc(N2CCOCC2)nc1-c1ccnc(-c2ccn(C)n2)n1 [Compound 56, 5-methoxy-2′-(I-methyl-1H-pyrazol-3-yl)-2-morpholino-N-(pyridin-4-yl)-4,4′-bipyrimidin-4-amine]",0.1 to 1 µM
22,"COc1c(-c2cccc(-c3ccn(C)n3)c2)nc(N2CCOCC2)nc1N1CCN(C)C(=O)C1 [Compound 60, 4-(5-methoxy-6-(3-(1-methyl-1H-pyrazol-3-yl)phenyl)-2-morpholinopyrimidin-4-yl)-1-methylpiperazin-2-one]",1 to 10 µM
23,"COc1c(-c2cccc(-n3cccn3)c2)nc(N2CCOCC2)nc1-c1nc(-c2ccccc2)c[nH]1 [Compound 61, 4-(4-(3-(1H-pyrazol-1-yl)phenyl)-6-methoxy-6-(4-phenyl-1H-imidazol-2-yl)pyrimidin-2-yl)morpholine]",1 to 10 µM
24,"O=c1[nH]c2ccc(-n3cccn3)cc2c2nc(N3CCOCC3)nc(Nc3ccncc3)c12 [Compound 64, 2-morpholino-9-pyrazol-1-yl-4-(4-pyridylamino)-6H-pyrimido[5,4-c]quinolin-5-one]",1 to 10 µM
25,CN(C)C(=O)c1c(Nc2ccncc2)nc(N2CCOCC2)nc1-c1cccc(-c2ccn(C)n2)c1 [Compound 66],0.1 to 1 µM
26,CN(C)C(=O)c1c(Nc2ccncc2)nc(N2CCOCC2)nc1-c1cccc(C#N)c1 [Compound 67],1 to 10 µM
27,Cn1ccc(-c2cccc(-c3nc(N4CCOCC4)nc(Nc4ccncc4)c3C(=O)N3CCC3)c2)n1 [Compound 68],0.01 to 0.1 µM
28,CN(C)C(=O)c1c(Nc2cccnc2)nc(N2CCOCC2)nc1-c1cccc(-n2cccn2)c1 [Compound 69],1 to 10 µM
29,"OCc1c(Nc2cccnc2)nc(N2CCOCC2)nc1-c1cccc(-n2cccn2)c1 [Compound 70, [2-morpholino-4-(3-pyrazol-1-ylphenyl)-6-(3-pyridylamino)pyrimidin-6-yl]methanol]",1 to 10 µM

# Results, then the compound that gave them:
row,IC50,SMILES
1,0.01 to 0.1 µM,"COc1c(Nc2ccncc2)nc(N2CCOCC2)nc1-c1cccc(-c2ccn(C)n2)c1 [Compound 3, 5-methoxy-6-(3-(1-methyl-1H-pyrazol-3-yl)phenyl)-2-morpholino-N-(pyridin-4-yl)pyrimidin-4-amine]"
2,0.1 to 1 µM,"COc1c(Nc2cccnc2)nc(N2CCOCC2)nc1-c1cccc(-c2ccn(C)n2)c1 [Compound 20, 5-methoxy-6-(3-(1-methyl-1H-pyrazol-3-yl)phenyl)-2-morpholino-N-(pyridin-3-yl)pyrimidin-4-amine]"
3,1 to 10 µM,COc1c(Nc2cccnc2)nc(N2CCOCC2)nc1-c1cccc(-c2cccnn2)c1 [Compound 21]
4,0.1 to 1 µM,"COc1c(Nc2cccnc2)nc(N2CCOCC2)nc1-c1ccnc(-c2ccn(C)n2)c1 [Compound 25, 5-methoxy-6-(2-(1-methyl-1H-pyrazol-3-yl)pyridin-4-yl)-2-morpholino-N-(pyridin-3-yl)pyrimidin-4-amine]"
5,1 to 10 µM,"COc1c(NCc2cccnn2)nc(N2CCOCC2)nc1-c1cccc(-c2ccn(C)n2)c1 [Compound 31, 5-methoxy-6-(3-(1-methyl-1H-pyrazol-3-yl)phenyl)-2-morpholino-N-(pyridazin-3-ylmethyl)pyrimidin-4-amine]"
6,0.01 to 0.1 µM,"COc1c(Nc2cccnc2)nc(-c2ccncc2)nc1-c1cccc(-c2ccn(C)n2)c1 [Compound 34, 5-methoxy-6-(3-(1-methyl-H-pyrazol-3-yl)phenyl)-N-(pyridin-3-yl)-2-(pyridin-4-yl)pyrimidin-4-amine]"
7,1 to 10 µM,"COc1c(Nc2ccncc2)nc(OC[C@H]2COCCN2)nc1-c1cccc(-c2ccn(C)n2)c1 [Compound 42, (R)-5-methoxy-6-(3-(1-methyl-1H-pyrazol-3-yl)phenyl)-2-(morpholin-3-ylmethoxy)-N-(pyridin-4-yl)pyrimidin-4-amine]"
8,1 to 10 µM,COc1c(Nc2ccncc2)nc(N2CCOC[C@H]2CO)nc1-c1cccc(-c2ccn(C)n2)c1 [Compound 43]
9,1 to 10 µM,"Cn1ccc(-c2cccc(-c3nc(N4CCOCC4)nc(Nc4cccnc4)c3P(C)(C)=O)c2)n1 [Compound 45, dimethyl(4-(3-(1-methyl-1H-pyrazol-3-yl)phenyl)-2-morpholino-6-(pyridin-3-ylamino)pyrimidin-6-yl)phosphine oxide]"
10,0.01 to 0.1 µM,"COc1c(Nc2ccncc2)nc(-c2ccncc2)nc1-c1cccc(-c2ccn(C)n2)c1 [Compound 53, 5-methoxy-6-(3-(1-methyl-1H-pyrazol-3-yl)phenyl)-N, 2-di(pyridin-4-yl)pyrimidin-4-amine]"
11,0.1 to 1 µM,"COc1c(-c2cccc(-c3ccn(C)n3)c2)nc(N2CCOCC2)nc1-c1ccc2ncccc2c1 [Compound 58, 4-(5-methoxy-4-(3-(1-methyl-1H-pyrazol-3-yl)phenyl)-6-(quinolin-6-yl)pyrimidin-2-yl)morpholine]"
12,1 to 10 µM,Cn1ccc(-c2cccc(-c3nc(N4CCOCC4)nc(Nc4cccnc4)c3[S+](C)[O-])c2)n1 (stereo not drawn) [Compound 59]
13,1 to 10 µM,"COc1c(NCc2cccnc2)nc(-c2cccc(-c3ccn(C)n3)c2)nc1-c1ccncc1 [Compound 63, 5-methoxy-2-(3-(1-methyl-1H-pyrazol-3-yl)phenyl)-N-(pyridin-3-ylmethyl)-6-(pyridin-4-yl)pyrimidin-4-amine]"

# Source: patent publication US20250197375A1, “PYRIMIDINES AND METHODS OF THEIR USE” (Kineta, Inc., priority 2021, published 2025)
